Reference: ChEMBL document CHEMBL4765377, “Design, synthesis, and evaluation of amphiphilic sofalcone derivatives as potent Gram-positive antibacterial agents” (Eur J Med Chem, 2020)
Values after ≈ are worked out from the molar mass of the structure shown. Active and inactive are the calls of the source. The rule behind the calls is not given here.

Legend:
Staphylococcus aureus [1] = experiment: Bactericidal activity against Staphylococcus aureus ATCC 29213 assessed as reduction in bacterial load at 4 time of MIC concentration preincubated for 60 mins followed by compound washout further subculturing and measured after 24 hrs by time-kill assay; assay type: functional; settings: 1 h
Escherichia coli [2] = experiment: Antibacterial activity against Escherichia coli ATCC 25922 assessed as reduction in bacterial growth after 24 hrs in presence of potassium ion by CLSI based broth micro dilution method; assay type: functional
Staphylococcus aureus [3] = experiment: Antibacterial activity against methicillin-resistant Staphylococcus aureus NCTC10442 assessed as reduction in bacterial growth after 24 hrs in presence of calcium ion by CLSI based broth micro dilution method; assay type: functional
Staphylococcus aureus [4] = experiment: Antibacterial activity against Staphylococcus aureus ATCC 29213 infected in C57BL6 mouse assessed as reduction in bacterial burden at 6.56 mmol/L, administered topically at 2 hrs interval for 3 days relative to control; assay type: functional; parameters: scale not given: the % may be the effect or the level left; settings: time 3 day
[5] = Cytotoxicity against mouse corneal fibroblast cells assessed as viability at 3.125 ug/ml after 24 hrs by CCK8 assay relative to control; assay type: cell-based; settings: at 3.125 µg/mL, read-out: Activity
Staphylococcus aureus [6] = experiment: Antibacterial activity against methicillin-resistant Staphylococcus aureus N315 assessed as reduction in bacterial growth after 24 hrs in presence of sodium ion by CLSI based broth micro dilution method; assay type: functional
Staphylococcus aureus [7] = experiment: Antibacterial activity against methicillin-resistant Staphylococcus aureus N315 assessed as reduction in bacterial growth after 24 hrs in presence of calcium ion by CLSI based broth micro dilution method; assay type: functional
Cell membrane [8] = experiment: Disruption of bacterial cell membrane in Staphylococcus aureus ATCC 29213 at 8 times of MIC measured for 2 hr by propidium iodide and SYTO9 dye based LIVE/DEAD bacterial viability assay
Staphylococcus aureus [9] = experiment: Bactericidal activity against Staphylococcus aureus ATCC 29213 assessed as reduction in bacterial load at MIC concentration preincubated for 120 mins followed by compound washout further subculturing and measured after 24 hrs by time-kill assay; assay type: functional; settings: 2 h
Escherichia coli [10] = experiment: Antibacterial activity against Escherichia coli ATCC 25922 assessed as reduction in bacterial growth after 24 hrs in presence of calcium ion by CLSI based broth micro dilution method; assay type: functional
Staphylococcus aureus [11] = experiment: Antibacterial activity against Staphylococcus aureus ATCC 29213 infected in C57BL6 mouse assessed as reduction in bacterial load at 6.56 mmol/L, administered topically at 2 hrs interval for 3 days; assay type: functional; settings: time 3 day
Staphylococcus aureus [12] = experiment: Antibacterial activity against methicillin-resistant Staphylococcus aureus N315 assessed as reduction in bacterial growth after 24 hrs in presence of potassium ion by CLSI based broth micro dilution method; assay type: functional
Cell membrane [13] = experiment: Disruption of bacterial cell membrane in methicillin-resistant Staphylococcus aureus NCTC10442 measured for 1 hr by SYTOX green staining based assay
[14] = Cytotoxicity against mouse corneal fibroblast cells assessed as viability at 12.5 ug/ml after 24 hrs by CCK8 assay relative to control; assay type: cell-based; settings: at 12.5 µg/mL, read-out: Activity
Staphylococcus aureus [15] = experiment: Antibacterial activity against methicillin-resistant Staphylococcus aureus NCTC10442 assessed as reduction in bacterial growth after 24 hrs in presence of potassium ion by CLSI based broth micro dilution method; assay type: functional
Staphylococcus aureus [16] = experiment: Antibacterial activity against methicillin-resistant Staphylococcus aureus N315 assessed as reduction in bacterial growth after 24 hrs in presence of magnesium ion by CLSI based broth micro dilution method; assay type: functional
Staphylococcus aureus [17] = experiment: Antibacterial activity against methicillin-resistant Staphylococcus aureus NCTC10442 assessed as reduction in bacterial growth after 24 hrs by CLSI based broth micro dilution method; assay type: functional
[18] = Cytotoxicity against human MDA-MB-231 cells assessed as viability at 12.5 ug/ml after 24 hrs by CCK8 assay relative to control; assay type: cell-based; settings: at 12.5 µg/mL, read-out: Activity
Staphylococcus aureus [19] = experiment: Bactericidal activity against Staphylococcus aureus ATCC 29213 assessed as reduction in bacterial load at 2 time of MIC concentration preincubated for 120 mins followed by compound washout further subculturing and measured after 24 hrs by time-kill assay; assay type: functional; settings: 2 h
[20] = Hemolytic activity in rabbit RBC after 60 mins; assay type: ADME, cell-based, Oryctolagus cuniculus, Erythrocyte; settings: rabbit red blood cells (erythrocytes)
Staphylococcus aureus [21] = experiment: Antibacterial activity against Staphylococcus aureus ATCC 29213 assessed as reduction in bacterial growth after 24 hrs in presence of calcium ion by CLSI based broth micro dilution method; assay type: functional
Staphylococcus aureus [22] = experiment: Antibacterial activity against Staphylococcus aureus ATCC 29213 assessed as reduction in bacterial growth at 0.5 time of MIC after 14 days passage by CLSI based broth micro dilution method; assay type: functional, organism-based; settings: time 14.0 day
[23] = Cytotoxicity against mouse NCTC clone 929 cells assessed as viability at 3.125 ug/ml after 24 hrs by CCK8 assay relative to control; assay type: cell-based; settings: at 3.125 µg/mL, read-out: Activity
Escherichia coli [24] = experiment: Antibacterial activity against Escherichia coli ATCC 25922 assessed as reduction in bacterial growth after 24 hrs in presence of sodium ion by CLSI based broth micro dilution method; assay type: functional
Staphylococcus aureus [25] = experiment: Antibacterial activity against methicillin-resistant Staphylococcus aureus NCTC10442 assessed as reduction in bacterial growth after 24 hrs in presence of magnesium ion by CLSI based broth micro dilution method; assay type: functional
Staphylococcus aureus [26] = experiment: Antibacterial activity against Staphylococcus aureus ATCC 29213 assessed as reduction in bacterial growth after 24 hrs in presence of magnesium ion by CLSI based broth micro dilution method; assay type: functional
[27] = Cytotoxicity against human MDA-MB-231 cells assessed as viability at 6.25 ug/ml after 24 hrs by CCK8 assay relative to control; assay type: cell-based; settings: at 6.25 µg/mL, read-out: Activity
Staphylococcus aureus [28] = experiment: Antibacterial activity against Staphylococcus aureus ATCC 29213 assessed as reduction in bacterial growth after 24 hrs by CLSI based broth micro dilution method; assay type: functional
[29] = Cytotoxicity against mouse NCTC clone 929 cells assessed as viability at 12.5 ug/ml after 24 hrs by CCK8 assay relative to control; assay type: cell-based; settings: at 12.5 µg/mL, read-out: Activity
Staphylococcus aureus [30] = experiment: Antibacterial activity against methicillin-resistant Staphylococcus aureus N315 assessed as reduction in bacterial growth after 24 hrs by CLSI based broth micro dilution method; assay type: functional
[31] = Cytotoxicity against mouse corneal fibroblast cells assessed as viability at 25 ug/ml after 24 hrs by CCK8 assay relative to control; assay type: cell-based; settings: at 25 µg/mL, read-out: Activity
[32] = Cytotoxicity against mouse corneal fibroblast cells assessed as viability at 6.25 ug/ml after 24 hrs by CCK8 assay relative to control; assay type: cell-based; settings: at 6.25 µg/mL, read-out: Activity
Staphylococcus aureus [33] = experiment: Antibacterial activity against Staphylococcus aureus ATCC 29213 assessed as reduction in bacterial growth after 24 hrs in presence of sodium ion by CLSI based broth micro dilution method; assay type: functional
Staphylococcus aureus [34] = experiment: Bactericidal activity against Staphylococcus aureus ATCC 29213 assessed as reduction in bacterial load at 8 time of MIC concentration preincubated for 30 mins followed by compound washout further subculturing and measured after 24 hrs by time-kill assay; assay type: functional; settings: 0.5 h
Escherichia coli [35] = experiment: Antibacterial activity against Escherichia coli ATCC 25922 assessed as reduction in bacterial growth after 24 hrs in presence of magnesium ion by CLSI based broth micro dilution method; assay type: functional
Escherichia coli [36] = experiment: Antibacterial activity against Escherichia coli ATCC 25922 assessed as reduction in bacterial growth after 24 hrs by CLSI based broth micro dilution method; assay type: functional
Staphylococcus aureus [37] = experiment: Antibacterial activity against methicillin-resistant Staphylococcus aureus NCTC10442 assessed as reduction in bacterial growth after 24 hrs in presence of sodium ion by CLSI based broth micro dilution method; assay type: functional
[38] = Cytotoxicity against human MDA-MB-231 cells assessed as viability at 25 ug/ml after 24 hrs by CCK8 assay relative to control; assay type: cell-based; settings: at 25 µg/mL, read-out: Activity
[39] = Cytotoxicity against mouse NCTC clone 929 cells assessed as viability at 6.25 ug/ml after 24 hrs by CCK8 assay relative to control; assay type: cell-based; settings: at 6.25 µg/mL, read-out: Activity
[40] = Cytotoxicity against mouse NCTC clone 929 cells assessed as viability at 25 ug/ml after 24 hrs by CCK8 assay relative to control; assay type: cell-based; settings: at 25 µg/mL, read-out: Activity
[41] = Cytotoxicity against human MDA-MB-231 cells assessed as viability at 3.125 ug/ml after 24 hrs by CCK8 assay relative to control; assay type: cell-based; settings: at 3.125 µg/mL, read-out: Activity
Staphylococcus aureus [42] = experiment: Antibacterial activity against Staphylococcus aureus ATCC 29213 assessed as reduction in bacterial growth after 24 hrs in presence of potassium ion by CLSI based broth micro dilution method; assay type: functional
Cell membrane [43] = experiment: Disruption of bacterial cell membrane in Staphylococcus aureus ATCC 29213 measured for 1 hr by SYTOX green staining based assay

With CC(C)=CCOc1ccc(/C=C/C(=O)c2ccc(OCC=C(C)C)cc2OCC(=O)N[C@@H](CCCNC(=N)N)C(=O)N[C@@H](CCCNC(=N)N)C(N)=O)cc1 the “log(activity)” value (Staphylococcus aureus [1]) was 3.25, the MIC (Escherichia coli [2]) was 6.25 µg/mL and the MIC (Staphylococcus aureus [3]) was 1.56 µg/mL. It also gave an Activity (Staphylococcus aureus [4]) greater than 99.99%, a viability at 24 h, 3.125 ug/ml [5] of 98% and an MIC (Staphylococcus aureus [6]) of 1.56 µg/mL. The MIC (Staphylococcus aureus [7]) was 1.56 µg/mL, the Activity (Cell membrane [8]) was “Active” and the “log(activity)” value (Staphylococcus aureus [9]) was 2.6. The MIC (Escherichia coli [10]) was 6.25 µg/mL, the “log(activity)” value (Staphylococcus aureus [11]) was 4.34 and the MIC (Staphylococcus aureus [12]) was 1.56 µg/mL. For the same molecule, the Activity (Cell membrane [13]) was “Dose-dependent effect”, the viability at 24 h, 12.5 ug/ml [14] was 64.2% and the MIC (Staphylococcus aureus [15]) was 1.56 µg/mL. For the same molecule, the MIC (Staphylococcus aureus [16]) was 1.56 µg/mL, the MIC (Staphylococcus aureus [17]) was 1.56 µg/mL (≈ 2.05 µM) and the viability at 24 h, 12.5 ug/ml [18] was 84.8%. The “log(activity)” value (Staphylococcus aureus [19]) was 2.76, the HC50 at 1 h [20] was 276 µg/mL and the MIC (Staphylococcus aureus [21]) was 1.56 µg/mL. The Activity (Staphylococcus aureus [22]) was “Active”, the viability at 24 h, 3.125 ug/ml [23] was 82% and the MIC (Escherichia coli [24]) was 12.5 µg/mL. The MIC (Staphylococcus aureus [25]) was 1.56 µg/mL, the MIC (Staphylococcus aureus [26]) was 1.56 µg/mL and the viability at 24 h, 6.25 ug/ml [27] was 89.3%. For the same molecule, the MIC (Staphylococcus aureus [28]) was 1.56 µg/mL (≈ 2.05 µM), the viability at 24 h, 12.5 ug/ml [29] was 69.9% and the MIC (Staphylococcus aureus [30]) was 1.56 µg/mL (≈ 2.05 µM). The viability at 24 h, 25 ug/ml [31] was 59.9%, the viability at 24 h, 6.25 ug/ml [32] was 76.3% and the MIC (Staphylococcus aureus [33]) was 1.56 µg/mL. For the same molecule, the “log(activity)” value (Staphylococcus aureus [34]) was 3.75, the MIC (Escherichia coli [35]) was 6.25 µg/mL and the MIC (Escherichia coli [36]) was 6.25 µg/mL (≈ 8.2 µM). It also gave an MIC (Staphylococcus aureus [37]) of 1.56 µg/mL, a viability at 24 h, 25 ug/ml [38] of 67.7% and a viability at 24 h, 6.25 ug/ml [39] of 79%. It also gave a viability at 24 h, 25 ug/ml [40] of 55.2%, a viability at 24 h, 3.125 ug/ml [41] of 95.6% and an MIC (Staphylococcus aureus [42]) of 1.56 µg/mL. For the same molecule, the Activity (Cell membrane [43]) was “Dose-dependent effect”.
